Results: the NIST ThermoML archive (doi:10.1021/je060271a)

Details: 343.16 K, Liquid, Vibrating tube method

CCCCC(=O)OCC(COC(=O)CCCC)(COC(=O)CCCC)COC(=O)CCCC [pentaerythritol tetrapentanoate]
Details | mass density [kg/m3]
3535.3 kPa | 981.2
3629.9 kPa | 981.3
3647.8 kPa | 981.5
3662.8 kPa | 981.3
3677.4 kPa | 981.3
3695.4 kPa | 981.4
3713.8 kPa | 981.4
3733.2 kPa | 981.4
3754.8 kPa | 981.5
3785.2 kPa | 981.5
3811.5 kPa | 981.5
3838.2 kPa | 981.6
3865.5 kPa | 981.5
5098.9 kPa | 982.6
5142.8 kPa | 982.5
5167.8 kPa | 982.6
5186.3 kPa | 982.5
5201 kPa | 982.6
5210.3 kPa | 982.5
5224.5 kPa | 982.5
5255.1 kPa | 982.6
5300.5 kPa | 982.6
5325.2 kPa | 982.7
5345.4 kPa | 982.7
5483.5 kPa | 982.9
5624.6 kPa | 983
5676.1 kPa | 983
5700.4 kPa | 982.9
5724.9 kPa | 982.9
5754 kPa | 983
5779.4 kPa | 983.1
5804.5 kPa | 983.1
5829.4 kPa | 982.9
5859.3 kPa | 983
5884.9 kPa | 983.1
5910.4 kPa | 983.1
5937.2 kPa | 983
5968 kPa | 983.3
5994 kPa | 983.1
6020.7 kPa | 983.2
6053.2 kPa | 983.2
6080.4 kPa | 983.2
6108.6 kPa | 983.3
6137.6 kPa | 983.3
6165.8 kPa | 983.2
6199.5 kPa | 983.3
6228 kPa | 983.4
6262.9 kPa | 983.4
6292.8 kPa | 983.4
6323.1 kPa | 983.4
6352.3 kPa | 983.4
6382.9 kPa | 983.5
6408.4 kPa | 983.5
6433.7 kPa | 983.5
6459.6 kPa | 983.5
6491.2 kPa | 983.7
6518.6 kPa | 983.6
6545.1 kPa | 983.6
6572.4 kPa | 983.7
6599.5 kPa | 983.7
6632.2 kPa | 983.7
6659.3 kPa | 983.6
6686.8 kPa | 983.6
6719.6 kPa | 983.7
6747.4 kPa | 983.8
6804.2 kPa | 983.8
6838.6 kPa | 983.8
6899.2 kPa | 983.8
6929.1 kPa | 983.9
6959.5 kPa | 983.9
6989.5 kPa | 984
7026.2 kPa | 983.9
7056.7 kPa | 984
7088 kPa | 984.1
7120.1 kPa | 984.1
7261.4 kPa | 984.1
7294.7 kPa | 984.3
7328.4 kPa | 984.1
7396.9 kPa | 984.2
7437.8 kPa | 984.2
7472.9 kPa | 984.3
